# Measured values taken from ChEMBL document CHEMBL4196183, “Discovery of New Allosteric Modulators of the Urotensinergic System through Substitution of the Urotensin II-Related Peptide (URP) Phenylalanine Residue” (J Med Chem, 2018).
# pEC50, pIC50: −log10 of the molar value.
# Tests used:
# [1] = biological target: T1, Urotensin-2 receptor (Homo sapiens) (UniProt Q9UKP6); experiment: Bias factor, ratio of deltalog(Tau/KA) for agonist activity at human UT receptor expressed in HEK293 cells co-expressing G12-polycistronic BRET biosensor assessed as induction of G12 activation by luminescence detection based BRET assay to deltalog(Tau/KA) for agonist activity at human UT receptor expressed in HEK293 cells co-expressing Gq-polycistronic BRET biosensor assessed as induction of Gq activation by luminescence detection based BRET assay; assay type: functional, cell-based
# T1 sequence (whole entry): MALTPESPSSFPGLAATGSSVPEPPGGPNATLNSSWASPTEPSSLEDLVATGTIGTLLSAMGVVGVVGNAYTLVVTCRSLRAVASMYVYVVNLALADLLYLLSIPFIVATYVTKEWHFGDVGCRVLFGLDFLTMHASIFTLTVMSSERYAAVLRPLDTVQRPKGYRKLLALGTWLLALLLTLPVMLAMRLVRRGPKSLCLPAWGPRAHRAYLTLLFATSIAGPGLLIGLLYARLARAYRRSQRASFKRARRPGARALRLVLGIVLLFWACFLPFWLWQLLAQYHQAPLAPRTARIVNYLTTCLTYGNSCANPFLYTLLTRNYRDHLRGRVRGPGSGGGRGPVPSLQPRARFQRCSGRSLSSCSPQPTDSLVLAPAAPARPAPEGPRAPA
# Urotensin-2 receptor [2] = biological target: T2, Urotensin-2 receptor (Homo sapiens, UniProt Q9UKP6); experiment: Agonist activity at human UT receptor expressed in HEK293 cells co-expressing Gq-polycistronic BRET biosensor assessed as induction of Gq activation measured for 5 mins by luminescence detection based BRET assay; assay type: functional, cell-based
# T2 sequence (Q9UKP6 whole entry): T1 sequence (whole entry)
# [3] = biological target: T1, Urotensin-2 receptor (Homo sapiens); experiment: Bias factor, ratio of deltalog(Tau/KA) for agonist activity at human UT receptor expressed in HEK293 cells co-expressing beta-arrestin1-polycistronic BRET biosensor assessed as induction of beta-arrestin1 recruitment by luminescence detection based BRET assay to deltalog(Tau/KA) for agonist activity at human UT receptor expressed in HEK293 cells co-expressing G12-polycistronic BRET biosensor assessed as induction of G12 activation by luminescence detection based BRET assay; assay type: functional, cell-based
# Urotensin-2 receptor [4] = biological target: T2, Urotensin-2 receptor; experiment: Displacement of [Na125I]-synthetic URP from human UT receptor expressed in HEK293 cell membranes incubated for 2 hrs by gamma-counting
# [5] = biological target: T1, Urotensin-2 receptor (Homo sapiens); experiment: Bias factor, ratio of deltalog(Tau/KA) for agonist activity at human UT receptor expressed in HEK293 cells co-expressing G12-polycistronic BRET biosensor assessed as induction of G12 activation by luminescence detection based BRET assay to deltalog(Tau/KA) for agonist activity at human UT receptor expressed in HEK293 cells co-expressing beta-arrestin1-polycistronic BRET biosensor assessed as induction of beta-arrestin1 recruitment by luminescence detection based BRET assay; assay type: functional, cell-based
# Urotensin-2 receptor [6] = biological target: T2, Urotensin-2 receptor; experiment: Agonist activity at human UT receptor expressed in HEK293 cells co-expressing beta-arrestin1-polycistronic BRET biosensor assessed as induction of beta-arrestin1 recruitment measured for 5 mins by luminescence detection based BRET assay; assay type: functional, cell-based
# Urotensin-2 receptor [7] = biological target: T3, Urotensin-2 receptor (Rattus norvegicus, UniProt P49684); experiment: Agonist activity at UT receptor in Sprague-Dawley rat thoracic aortic ring assessed as induction of contraction; assay type: functional
# T3 sequence (P49684 whole entry): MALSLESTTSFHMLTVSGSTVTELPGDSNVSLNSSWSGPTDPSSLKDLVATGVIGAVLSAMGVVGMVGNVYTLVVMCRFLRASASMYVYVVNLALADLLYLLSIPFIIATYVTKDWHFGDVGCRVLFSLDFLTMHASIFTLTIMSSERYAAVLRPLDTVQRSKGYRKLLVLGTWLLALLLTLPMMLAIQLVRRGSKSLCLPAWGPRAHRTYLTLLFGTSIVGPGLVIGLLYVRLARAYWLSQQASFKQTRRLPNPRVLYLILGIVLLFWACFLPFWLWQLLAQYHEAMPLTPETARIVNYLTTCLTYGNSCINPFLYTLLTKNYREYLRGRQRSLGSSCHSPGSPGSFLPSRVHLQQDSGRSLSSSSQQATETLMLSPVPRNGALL
# Urotensin-2 receptor [8] = biological target: T2, Urotensin-2 receptor; experiment: Agonist activity at human UT receptor expressed in HEK293 cells co-expressing G12-polycistronic BRET biosensor assessed as induction of G12 activation measured for 5 mins by luminescence detection based BRET assay; assay type: functional, cell-based
# [9] = biological target: T1, Urotensin-2 receptor (Homo sapiens); experiment: Agonist activity at human UT receptor expressed in HEK293 cells co-expressing G12-polycistronic BRET biosensor assessed as induction of G12 activation measured for 5 mins by luminescence detection based BRET assay relative to 10 uM URP; assay type: functional, cell-based
# [10] = biological target: T1, Urotensin-2 receptor (Homo sapiens); experiment: Selectivity index, change in deltalog(Tau/KA) for agonist activity at human UT receptor expressed in HEK293 cells co-expressing beta-arrestin1-polycistronic BRET biosensor assessed as induction of beta-arrestin1 recruitment by luminescence detection based BRET assay to deltalog(Tau/KA) for agonist activity at human UT receptor expressed in HEK293 cells co-expressing G12-polycistronic BRET biosensor assessed as induction of G12 activation by luminescence detection based BRET assay to; assay type: functional, cell-based
# [11] = biological target: T1, Urotensin-2 receptor (Homo sapiens); experiment: Agonist activity at human UT receptor expressed in HEK293 cells co-expressing Gq-polycistronic BRET biosensor assessed as induction of Gq activation measured for 5 mins by luminescence detection based BRET assay relative to 10 uM URP; assay type: functional, cell-based
# [12] = biological target: T1, Urotensin-2 receptor (Homo sapiens); experiment: Bias factor, ratio of deltalog(Tau/KA) for agonist activity at human UT receptor expressed in HEK293 cells co-expressing Gq-polycistronic BRET biosensor assessed as induction of Gq activation by luminescence detection based BRET assay to deltalog(Tau/KA) for agonist activity at human UT receptor expressed in HEK293 cells co-expressing beta-arrestin1-polycistronic BRET biosensor assessed as induction of beta-arrestin1 recruitment by luminescence detection based BRET assay; assay type: functional, cell-based
# [13] = biological target: T4, Urotensin-2 receptor (Rattus norvegicus) (UniProt P49684); experiment: Agonist activity at UT receptor in Sprague-Dawley rat thoracic aortic ring assessed as induction of contraction relative to KCl-induced contraction; assay type: functional
# T4 sequence (whole entry): T3 sequence (P49684 whole entry)
# [14] = biological target: T1, Urotensin-2 receptor (Homo sapiens); experiment: Agonist activity at human UT receptor expressed in HEK293 cells co-expressing beta-arrestin1-polycistronic BRET biosensor assessed as induction of beta-arrestin1 recruitment measured for 5 mins by luminescence detection based BRET assay relative to 10 uM URP; assay type: functional, cell-based
# [15] = biological target: T1, Urotensin-2 receptor (Homo sapiens); experiment: Selectivity index, change in deltalog(Tau/KA) for agonist activity at human UT receptor expressed in HEK293 cells co-expressing Gq-polycistronic BRET biosensor assessed as induction of Gq activation by luminescence detection based BRET assay to deltalog(Tau/KA) for agonist activity at human UT receptor expressed in HEK293 cells co-expressing beta-arrestin1-polycistronic BRET biosensor assessed as induction of beta-arrestin1 recruitment by luminescence detection based BRET assay; assay type: functional, cell-based
# [16] = biological target: T1, Urotensin-2 receptor (Homo sapiens); experiment: Bias factor, ratio of deltalog(Tau/KA) for agonist activity at human UT receptor expressed in HEK293 cells co-expressing Gq-polycistronic BRET biosensor assessed as induction of Gq activation by luminescence detection based BRET assay to deltalog(Tau/KA) for agonist activity at human UT receptor expressed in HEK293 cells co-expressing G12-polycistronic BRET biosensor assessed as induction of G12 activation by luminescence detection based BRET assay; assay type: functional, cell-based
# [17] = biological target: T1, Urotensin-2 receptor (Homo sapiens); experiment: Bias factor, ratio of deltalog(Tau/KA) for agonist activity at human UT receptor expressed in HEK293 cells co-expressing beta-arrestin1-polycistronic BRET biosensor assessed as induction of beta-arrestin1 recruitment by luminescence detection based BRET assay to deltalog(Tau/KA) for agonist activity at human UT receptor expressed in HEK293 cells co-expressing Gq-polycistronic BRET biosensor assessed as induction of Gq activation by luminescence detection based BRET assay; assay type: functional, cell-based
# [18] = biological target: T1, Urotensin-2 receptor (Homo sapiens); experiment: Selectivity index, change in deltalog(Tau/KA) for agonist activity at human UT receptor expressed in HEK293 cells co-expressing G12-polycistronic BRET biosensor assessed as induction of G12 activation by luminescence detection based BRET assay to deltalog(Tau/KA) for agonist activity at human UT receptor expressed in HEK293 cells co-expressing Gq-polycistronic BRET biosensor assessed as induction of Gq activation by luminescence detection based BRET assay; assay type: functional, cell-based
# [19] = biological target: T4, Urotensin-2 receptor (Rattus norvegicus); experiment: (§1) Antagonist activity at UT receptor in Sprague-Dawley rat thoracic aortic ring assessed as reduction in URP-induced contraction by measuring Emax for […] at 1 uM pre-incubated for 30 mins […] relative to KCl-induced contraction (reference value: 107 +/- 3%); assay type: functional
# [20] = biological target: T4, Urotensin-2 receptor (Rattus norvegicus); experiment: as §1, with “urotensin-2-induced” for “URP-induced”, “101” for “107”, “4%)” for “3%)”; assay type: functional
SMILES,fold change (FC) [1],pEC50 (Urotensin-2 receptor [2]),fold change (FC) [3],pIC50 (Urotensin-2 receptor [4]),fold change (FC) [5],pEC50 (Urotensin-2 receptor [6]),pEC50 (Urotensin-2 receptor [7]),pEC50 (Urotensin-2 receptor [8]),Emax [9] [%],deltadeltalog(Tau/KA) (beta-arrestin1 selectivity index) [10],Emax [11] [%],fold change (FC) [12],Emax [13] [%],Emax [14] [%],"selectivity index, deltadeltalog(Tau/KA) [15]",fold change (FC) [16],fold change (FC) [17],deltalog(Tau/KA) [18],Emax [19] [%],Emax [20] [%]
CC(C)[C@H](NC(=O)[C@@H]1CSSC[C@H](NC(=O)[C@@H](N)CC(=O)O)C(=O)N[C@@H](Cc2ccc(I)cc2)C(=O)N[C@@H](Cc2c[nH]c3ccccc23)C(=O)N[C@@H](CCCCN)C(=O)N[C@@H](Cc2ccc(O)cc2)C(=O)N1)C(=O)O,1.7,8.15,0.8,8.40,1.3,6.72,7.98,7.44,94,-0.13,100,0.8,112,104,-0.1,0.6,1.2,0.22,–,–
CC(C)[C@H](NC(=O)[C@@H]1CSSC[C@H](NC(=O)[C@@H](N)CC(=O)O)C(=O)N[C@H](Cc2ccc(I)cc2)C(=O)N[C@@H](Cc2c[nH]c3ccccc23)C(=O)N[C@@H](CCCCN)C(=O)N[C@@H](Cc2ccc(O)cc2)C(=O)N1)C(=O)O,–,7.33,–,< 6.00,–,6.46,< 5.00,6.91,–,–,–,–,–,–,–,–,–,–,–,–

# Next, values leading:
fold change (FC) [1],pEC50 (Urotensin-2 receptor [2]),fold change (FC) [3],pIC50 (Urotensin-2 receptor [4]),fold change (FC) [5],pEC50 (Urotensin-2 receptor [6]),pEC50 (Urotensin-2 receptor [7]),pEC50 (Urotensin-2 receptor [8]),Emax [9] [%],deltadeltalog(Tau/KA) (beta-arrestin1 selectivity index) [10],Emax [11] [%],fold change (FC) [12],Emax [13] [%],Emax [14] [%],"selectivity index, deltadeltalog(Tau/KA) [15]",fold change (FC) [16],fold change (FC) [17],deltalog(Tau/KA) [18],Emax [19] [%],Emax [20] [%],SMILES
0.8,7.97,2.8,8.25,0.4,6.74,7.50,7.32,73,0.45,97,0.5,53,101,-0.32,1.3,2.1,-0.12,–,–,CC(C)[C@H](NC(=O)[C@@H]1CSSC[C@H](NC(=O)[C@H](C)N)C(=O)N[C@@H](Cc2ccc(I)cc2)C(=O)N[C@@H](Cc2c[nH]c3ccccc23)C(=O)N[C@@H](CCCCN)C(=O)N[C@@H](Cc2ccc(O)cc2)C(=O)N1)C(=O)O
50,–,0.3,–,3.5,–,–,–,74,-0.54,102,0.1,10,60,-1.16,0,14.4,1.7,91,95,CC(C)[C@H](NC(=O)[C@@H]1CSSC[C@H](NC(=O)[C@@H](C)N)C(=O)N[C@@H](Cc2ccc(-c3ccccc3)cc2)C(=O)N[C@@H](Cc2c[nH]c3ccccc23)C(=O)N[C@@H](CCCCN)C(=O)N[C@@H](Cc2ccc(O)cc2)C(=O)N1)C(=O)O
1,8.44,1,7.71,1,6.84,8.16,7.04,–,0,–,1,107,–,0,1,1,0,–,–,CC(C)[C@H](NC(=O)[C@@H]1CSSC[C@H](NC(=O)[C@H](C)N)C(=O)N[C@@H](Cc2ccccc2)C(=O)N[C@@H](Cc2c[nH]c3ccccc23)C(=O)N[C@@H](CCCCN)C(=O)N[C@@H](Cc2ccc(O)cc2)C(=O)N1)C(=O)O
